In publication PMC3352081, “Discovery of catalytically active orthologues of the Parkinson's disease kinase PINK1: analysis of substrate specificity and impact of mutations” (Open biology, 2011):
“And” between values parts separate entries of the source, which are not always exact repeats. Equal values may be shown once.

Biological target: T1, full-length TcPINK1 (1–570) (Tribolium castaneum, UniProt D6WMX4)
T1 construct: Kinetics of phosphorylation of PINKtide and indicated variants by full-length TcPINK1 (1–570); made in house; host or cells: E. coli BL21 Codon+
T1 sequence (D6WMX4 1-570): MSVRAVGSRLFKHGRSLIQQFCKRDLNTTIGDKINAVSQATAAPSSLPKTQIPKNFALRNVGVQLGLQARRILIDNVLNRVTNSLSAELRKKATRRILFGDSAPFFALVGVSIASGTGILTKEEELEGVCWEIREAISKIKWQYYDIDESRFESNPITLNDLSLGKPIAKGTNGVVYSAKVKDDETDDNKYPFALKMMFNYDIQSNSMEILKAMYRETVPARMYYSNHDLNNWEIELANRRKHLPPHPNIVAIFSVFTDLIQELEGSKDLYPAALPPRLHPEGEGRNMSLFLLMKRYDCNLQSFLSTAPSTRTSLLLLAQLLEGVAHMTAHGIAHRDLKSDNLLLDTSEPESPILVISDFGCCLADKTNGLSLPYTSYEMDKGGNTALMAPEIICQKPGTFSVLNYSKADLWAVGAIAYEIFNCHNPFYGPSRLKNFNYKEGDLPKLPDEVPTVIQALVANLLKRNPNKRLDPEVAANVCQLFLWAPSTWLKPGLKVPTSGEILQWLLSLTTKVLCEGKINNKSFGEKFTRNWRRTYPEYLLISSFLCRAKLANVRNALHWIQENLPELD
Experiment: Peptide substrate kinase assay: phosphorylation of PINKtide and variants, [γ-32P] ATP, P81 paper
Type: biochemical
Conditions: phosphorylation of the peptide substrate by full-length TcPINK1 (1–570), kinase 1 µM, 0.1 mM [γ-32P] ATP, 30°C, n.d. = peptide phosphorylated poorly, kinetic values not determinable; for Km: 10 mM MgCl2, 50 mM Tris–HCl pH 7.5, 30 min, nonlinear regression (GraphPad Prism), similar results in at least two experiments; for Vmax: 30 min, 1 U = incorporation of 1 nmol of ATP into substrate, nonlinear regression
Description: For assays using peptide substrates, assays were set up in a volume of 50 µl, with all kinases at 1 µM and peptide substrates at the indicated concentrations in 50 mM Tris–HCl (pH 7.5), 0.1 mM EGTA, 10 mM MgCl2, 2 mM dithiothreitol and 0.1 mM [γ-^32P] ATP. Assays were incubated for 30 min at 30°C with shaking at 1200 r.p.m., and terminated by spotting of 40 µl of the reaction mixture onto P81 phosphocellulose paper and washing in 50 mM phosphoric acid. After extensive further washing, incorporation of [γ-^32P] ATP into substrates was quantified by Cerenkov counting. For MBP assays using P81 paper, 5 µg of MBP was used.
One unit of TcPINK1 activity was defined as the amount of enzyme that catalysed the incorporation of 1 nmol of ATP into a given substrate. Km and Vmax values were determined by analysing the phosphorylation of PINKtide and its variants at various concentrations. Km and Vmax values were calculated using the GRAPHPAD PRISM program.

| Substance | Km | Vmax |
| --- | --- | --- |
| KKAIpYRRSPRRR [PINKtide variant at the −5 position] | 435 µM | 8 U mg^−1 |
| KKEIpYRRSPRRR [PINKtide variant at the −5 position] | 192 µM | 6 U mg^−1 |
| KKFIpYRRSPRRR [PINKtide variant at the −5 position] | 163 µM | 3 U mg^−1 |
| KKKIpYRRSPRRR [PINKtide variant at the −5 position] | 165 µM | 2 U mg^−1 |
| KKLIpYRRSPRRR [PINKtide variant at the −5 position] | 381 µM | 5 U mg^−1 |
| KKWIERRSPRRR [PINKtide variant at the −3 position] | 36 µM | 2 U mg^−1 |
| KKWIFRRSPRRR [PINKtide variant at the −3 position] | 63 µM | 2 U mg^−1 |
| KKWIKRRSPRRR [PINKtide variant at the −3 position] | 50 µM | 1 U mg^−1 |
| KKWISRRSPRRR [PINKtide variant at the −3 position] | 81 µM | 3 U mg^−1 |
| KKWITRRSPRRR [PINKtide variant at the −3 position] | 278 µM | 3 U mg^−1 |
| KKWIYRRSPRRR [PINKtide variant at the −3 position] | 30 µM | 3 U mg^−1 |
| KKWIpSRRSPRRR [PINKtide variant at the −3 position] | 117 µM | 3 U mg^−1 |
| KKWIpTRRSPRRR [PINKtide variant at the −3 position] | 970 µM | 8 U mg^−1 |
| KKWIpYRRSPRRR [PINKtide, optimal peptide substrate for TcPINK1, KKWIpYRRSPRRR] | 493 µM and ~500 µM | – |
| KKWIpYRRTPRRR [PINKtide variant, phosphorylated Ser changed to Thr] | 756 µM | 8 U mg^−1 |
